Results as given in US12551451B2, “Compositions and methods for delivering molecules” (SunVax mRNA Therapeutics Inc., priority 2023, dated 2026).

What was measured:
[1] = system: endogenous CD4, CD8, CD4/CD8 T cells and NK cells; experiment: In vivo transfection of T and NK cells with LNP-encapsulated modified mRNA encoding eGFP, FACS of splenocytes; set-up: species or system Balb/c mice; details: LNP delivering 10 mg modified mRNA encoding eGFP, intravenously, 18 hours after injection
Procedure: (§1) LNP formulated using the ionizable lipids of the disclosure were used to deliver modified RNA encoding reporter genes to determine the transfection efficiency of exemplary ionizable lipids of the disclosure in immune cells and organs. Injections of mice with LNP-encapsulated modified mRNA encoding either Luciferases or eGFP were performed. In experiments with payloads encoding Luciferase mRNA, spleen expression was detected, which is an important organ with abundant pan T cells. In experiments with payloads encoding eGFP mRNA, transfection of primary T cells in vivo by FACS analysis was performed.
Balb/c mice were intravenously injected with of 10 mg modified mRNA encoding eGFP. The modified mRNA encoding eGFP were delivered using LNPs formulated with P1D4 and P161F6 ionizable lipids in groups of 5 mice. A control group of 5 mice were injected with PBS. Balb/c mice were injected intravenously. The mice were sacrificed 18 hours after injection. Single cell splenocytes were prepared for FACS staining.

[2] = system: spleen; experiment: In vivo Luciferase expression after injection of LNP-encapsulated modified mRNA, IVIS imaging; details: LNP delivering 10 mg modified mRNA encoding Luciferase; 18 hours post injection; Balb/c mice
Procedure: as §1
Balb/c mice were intraperitoneally injected with 10 mg modified mRNA encoding Luciferase, encapsulated by LNPs formulated with P1D4, P51C12, P161F6 ionizable lipids. To detect luminescence, the mice were subsequently injected with 6 mg Luciferin, a substrate of Luciferase and imaged by IVIS five minutes later.

[3] = LNP Characteristics (size, PDI, encapsulation efficiency) of LNPs formulated with novel ionizable lipids; assay type: physicochemical; details: LNP formulated with the ionizable lipid, DOPE, Cholesterol, DMG-PEG2000
Procedure: LNPs formulated using the novel ionizable lipids of the disclosure or control ionizable lipids MC3 and SM-102 were synthesized by mixing the lipid components of the LNP in ethanol at a predetermined molar ratio (ionizable lipid/DOPE/Cholesterol/DMG-PEG2000=30/15/50/1.5) to prepare an organic phase. Sa-mRNA encoding firefly luciferase (LUC) or green fluorescent protein (GFP) was diluted in 50 mM citrate buffer (pH 4.5, Fisher) to prepare an aqueous phase. The sa-mRNA was stored at −80° C. and was thawed on ice prior to use. The ethanol and aqueous phases were mixed at a 1:3 ratio by pipette with the N/P=4.2/1. The resultant LNPs were purified by ultrafiltration (100,000 cut-off, MilliporeSigma™ Amicon™ Ultra-15 Centrifugal Filter Units) at 4° C. prior to transfection into a cell, such as a T-cell.
LNPs formulated using novel ionizable lipids of the disclosure were synthesized using the procedure described in Example 2 and characterized. Table 4 below show the properties of each LNP formulated using a novel ionizable lipid of the disclosure.

SMILES | transfection of endogenous CD4, CD8, CD4/CD8 T cells and NK cells [1] | transfection of the spleen (Luciferase signal) [2] | Avg. Encapsulation Efficiency (EE) % [3] [%] | Avg. PDI [3] | Avg. Size [3] [nm]
CCCCCCCCCCCCCC(=O)N(CC(CCCCCCCC)CCCCCCCCCC)C(C(=O)NCC(=O)OCC)C1CCN(CC)CC1 (stereo not shown) [Lipid P1D4, Ethyl (2-(1-ethylpiperidin-4-yl)-2-(N-(2-octyldodecyl)tetradecanamido)acetyl)glycinate] | could transfect endogenous CD4, CD8, CD4/CD8 T cells as well as NK cell | effectively transfected the spleen | 92.7 | 0.17 | 170.4
CCCCCCCCCCCCC(CCCCCCCCCC)CN(C(=O)CCC(C)C1CCC2C3CC(O)C4CC(O)CCC4(C)C3CCC12C)C(C(=O)NC12CC3CC(CC(C3)C1)C2)C1CCN(CC)CC1 (stereo not shown) [Lipid P161F6, N-(2-(((1s,3s)-adamantan-1-yl)amino)-1-(1-ethylpiperidin-4-yl)-2-oxoethyl)-N-(2-decyltetradecyl)-4-(3,6-dihydroxy-10,13-dimethylhexadecahydro-1H-cyclopenta[a]phenanthren-17-yl)pentanamide] | could transfect endogenous CD4, CD8, CD4/CD8 T cells as well as NK cell | effectively transfected the spleen | 87.1 | 0.18 | 215
